Values of other authors, collected in patent publication US20110086102A1, “DELAYED RELEASE COMPOSITIONS” (Teva Pharmaceutical Industries Ltd., priority 2009, published 2011).
Read-outs that look alike come from different tables or passages of the source.

For COc1c(C)c2c(c(O)c1C/C=C(\C)CCC(=O)[O-])C(=O)OC2.[Na+] [Mycophenolate sodium, (E)-6-(4-hydroxy-6-methoxy-7-methyl-3-oxo-1,3-dihydro-isobenzofuran-5-yl)-4-methylhex-4-enoic acid sodium salt], the Solubility (0.1N hydrochloric acid) is given as “practically insoluble” and the Solubility (aqueous media at physiological pH) is given as “highly soluble”.
